Measured values as given in ChEMBL document CHEMBL1154296, “Potent inhibitors of beta-tryptase and human leukocyte elastase based on the MCoTI-II scaffold” (J Med Chem, 2009).
Starred links: 1 amine or outer side, 2 acyl side, 3 side chain; linkers in the order of their positions; H or OH if unused. Positions of bridges follow the written chain, without caps; N, C: chain ends. Non-standard residues stand in square brackets, D forms with d. Residues, ends and D or L forms follow the SMILES beside them. X2 = N=C(N)NCCC[C@@H](C(=O)[C@H](CCC(N)=O)N[*:1])C(=O)[*:2]; X1 = NCCCC[C@@H](C(=O)[C@H](CCCCN)N[*:1])C(=O)[*:2]

Assays:
[1] = Inhibition of tryptase by substrate hydrolysis based fluorescence assay
Neutrophil elastase = molecular target: T1, Neutrophil elastase (Homo sapiens, UniProt P08246); assay: Inhibition of human leukocyte elastase by substrate hydrolysis based fluorescence assay
T1 sequence (P08246 whole entry): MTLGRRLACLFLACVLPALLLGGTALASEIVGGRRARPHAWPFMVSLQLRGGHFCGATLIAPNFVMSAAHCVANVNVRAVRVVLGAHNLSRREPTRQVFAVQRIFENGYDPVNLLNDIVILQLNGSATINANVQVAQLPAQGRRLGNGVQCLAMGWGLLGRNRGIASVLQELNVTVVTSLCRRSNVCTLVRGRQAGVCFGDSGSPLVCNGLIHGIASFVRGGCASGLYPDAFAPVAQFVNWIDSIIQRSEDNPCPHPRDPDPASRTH

[2] = Inhibition of trypsin by substrate hydrolysis based fluorescence assay

Structure (SMILES) | Ki [1] [nM] | Ki (Neutrophil elastase) | Ki [2] [nM] | Ki (Neutrophil elastase; read-out: Ki) [nM]
CC[C@H](C)[C@@H]1NC(=O)[C@@H]2CSSC[C@@H]3NC(=O)[C@H](C(C)C)NC(=O)CNC(=O)CNC(=O)[C@H](CC(=O)O)NC(=O)[C@H](CO)NC(=O)CNC(=O)[C@H](CO)NC(=O)CNC(=O)[C@@H]4CSSC[C@H](NC(=O)[C@H](CC(=O)O)NC(=O)[C@H](CO)NC(=O)[C@H](CC(=O)O)NC(=O)[C@H](CCCNC(=N)N)NC(=O)[C@H](CCCNC(=N)N)NC(=O)[C@H](CSSC[C@H](NC1=O)C(=O)N[C@@H](CCCNC(=N)N)C(=O)NCC(=O)N[C@@H](CC(N)=O)C(=O)NCC(=O)N[C@@H](Cc1ccc(O)cc1)C(=O)N4)NC(=O)[C@@H](CCCNC(=N)N)C(=O)[C@H](CCC(N)=O)NC(=O)[C@H](CC(C)C)NC(=O)[C@H]([C@@H](C)CC)NC(=O)[C@H](CCCNC(=N)N)NC(=O)[C@@H]1CCCN1C3=O)C(=O)N1CCC[C@H]1C(=O)NCC(=O)N[C@@H](C)C(=O)N2 (cyclo(ACICRGNGYCGSGSDGGVCPRIL[X2]CRRDSDCPG); disulfide 2-19, 4-25, 10-31) | 100 | Not Active | 0.085 | 
CC[C@H](C)[C@@H]1NC(=O)[C@H](C)NC(=O)[C@@H]2CCCN2C(=O)[C@@H]2CSSC[C@@H]3NC(=O)[C@H](C)NC(=O)CNC(=O)[C@@H]4CCCN4C(=O)[C@@H]4CSSC[C@H](NC(=O)[C@H](Cc5ccc(O)cc5)NC(=O)CNC(=O)[C@H](CC(N)=O)NC(=O)CNC(=O)[C@H](CCCNC(=N)N)NC(=O)[C@H](CSSC[C@H](NC(=O)[C@@H](CCCNC(=N)N)C(=O)[C@H](CCC(N)=O)NC(=O)[C@H](CC(C)C)NC1=O)C(=O)N[C@@H](CCCNC(=N)N)C(=O)N[C@@H](CCCNC(=N)N)C(=O)N[C@@H](CC(=O)O)C(=O)N[C@@H](CO)C(=O)N[C@@H](CC(=O)O)C(=O)N4)NC(=O)[C@H]([C@@H](C)CC)NC3=O)C(=O)NCC(=O)N[C@@H](CO)C(=O)NCC(=O)N[C@@H](CO)C(=O)N[C@@H](CC(=O)O)C(=O)NCC(=O)NCC(=O)N[C@@H](C(C)C)C(=O)N2 (cyclo(ACICRGNGYCGSGSDGGVCPAIL[X2]CRRDSDCPG); disulfide 2-19, 4-25, 10-31) | > 50000 |  | > 0.109 | 32
CC[C@H](C)[C@@H]1NC(=O)[C@@H]2CSSC[C@@H]3NC(=O)[C@H](C(C)C)NC(=O)CNC(=O)CNC(=O)[C@H](CC(=O)O)NC(=O)[C@H](CO)NC(=O)CNC(=O)[C@H](CO)NC(=O)CNC(=O)[C@@H]4CSSC[C@H](NC(=O)[C@H](CC(=O)O)NC(=O)[C@H](CO)NC(=O)[C@H](CC(=O)O)NC(=O)[C@H](CCCNC(=N)N)NC(=O)[C@H](CCCNC(=N)N)NC(=O)[C@H](CSSC[C@H](NC1=O)C(=O)N[C@@H](CCCNC(=N)N)C(=O)NCC(=O)N[C@@H](CC(N)=O)C(=O)NCC(=O)N[C@@H](Cc1ccc(O)cc1)C(=O)N4)NC(=O)[C@@H](CCCNC(=N)N)C(=O)[C@H](CCC(N)=O)NC(=O)[C@H](CC(C)C)NC(=O)[C@H]([C@@H](C)CC)NC(=O)[C@H](Cc1ccccc1)NC(=O)[C@@H]1CCCN1C3=O)C(=O)N1CCC[C@H]1C(=O)NCC(=O)N[C@@H](C)C(=O)N2 (cyclo(ACICRGNGYCGSGSDGGVCPFIL[X2]CRRDSDCPG); disulfide 2-19, 4-25, 10-31) | > 50000 |  | > 0.105 | > 7500
CC[C@H](C)[C@@H]1NC(=O)[C@@H]2CSSC[C@@H]3NC(=O)[C@H](C(C)C)NC(=O)CNC(=O)CNC(=O)[C@H](CC(=O)O)NC(=O)[C@H](CO)NC(=O)CNC(=O)[C@H](CO)NC(=O)CNC(=O)[C@@H]4CSSC[C@H](NC(=O)[C@H](CC(=O)O)NC(=O)[C@H](CO)NC(=O)[C@H](CC(=O)O)NC(=O)[C@H](CCCNC(=N)N)NC(=O)[C@H](CCCNC(=N)N)NC(=O)[C@H](CSSC[C@H](NC1=O)C(=O)N[C@@H](CCCNC(=N)N)C(=O)NCC(=O)N[C@@H](CC(N)=O)C(=O)NCC(=O)N[C@@H](Cc1ccc(O)cc1)C(=O)N4)NC(=O)[C@@H](CCCNC(=N)N)C(=O)[C@H](CCC(N)=O)NC(=O)[C@H](CC(C)C)NC(=O)[C@H]([C@@H](C)CC)NC(=O)[C@H](CCCCN)NC(=O)[C@@H]1CCCN1C3=O)C(=O)N1CCC[C@H]1C(=O)NCC(=O)N[C@@H](C)C(=O)N2 (cyclo(ACICRGNGYCGSGSDGGVCPKIL[X2]CRRDSDCPG); disulfide 2-19, 4-25, 10-31) | 1600 | Not Active | 0.029 | 

Continued, values first:

Ki [1] [nM] | Ki (Neutrophil elastase) | Ki [2] [nM] | Ki (Neutrophil elastase; read-out: Ki) [nM] | Structure (SMILES)
> 50000 |  |  | 520 | CC[C@H](C)[C@@H]1NC(=O)[C@@H]2CSSC[C@@H]3NC(=O)[C@H](C(C)C)NC(=O)CNC(=O)CNC(=O)[C@H](CC(=O)O)NC(=O)[C@H](CO)NC(=O)CNC(=O)[C@H](CO)NC(=O)CNC(=O)[C@@H]4CSSC[C@H](NC(=O)[C@H](CC(=O)O)NC(=O)[C@H](CO)NC(=O)[C@H](CC(=O)O)NC(=O)[C@H](CCCNC(=N)N)NC(=O)[C@H](CCCNC(=N)N)NC(=O)[C@H](CSSC[C@H](NC1=O)C(=O)N[C@@H](CCCNC(=N)N)C(=O)NCC(=O)N[C@@H](CC(N)=O)C(=O)NCC(=O)N[C@@H](Cc1ccc(O)cc1)C(=O)N4)NC(=O)[C@@H](CCCNC(=N)N)C(=O)[C@H](CCC(N)=O)NC(=O)[C@H](CC(C)C)NC(=O)[C@@H]1CCCN1C(=O)[C@H](C(C)C)NC(=O)[C@@H]1CCCN1C3=O)C(=O)N1CCC[C@H]1C(=O)NCC(=O)N[C@@H](C)C(=O)N2 (cyclo(ACICRGNGYCGSGSDGGVCPVPL[X2]CRRDSDCPG); disulfide 2-19, 4-25, 10-31)
> 50000 |  | > 0.109 | 21 | CC[C@H](C)[C@@H]1NC(=O)[C@@H]2CSSC[C@@H]3NC(=O)[C@H](C(C)C)NC(=O)CNC(=O)CNC(=O)[C@H](CC(=O)O)NC(=O)[C@H](CO)NC(=O)CNC(=O)[C@H](CO)NC(=O)CNC(=O)[C@@H]4CSSC[C@H](NC(=O)[C@H](CC(=O)O)NC(=O)[C@H](CO)NC(=O)[C@H](CC(=O)O)NC(=O)[C@H](CCCNC(=N)N)NC(=O)[C@H](CCCNC(=N)N)NC(=O)[C@H](CSSC[C@H](NC1=O)C(=O)N[C@@H](CCCNC(=N)N)C(=O)NCC(=O)N[C@@H](CC(N)=O)C(=O)NCC(=O)N[C@@H](Cc1ccc(O)cc1)C(=O)N4)NC(=O)[C@@H](CCCNC(=N)N)C(=O)[C@H](CCC(N)=O)NC(=O)[C@H](CC(C)C)NC(=O)[C@H]([C@@H](C)CC)NC(=O)[C@H](C(C)C)NC(=O)[C@@H]1CCCN1C3=O)C(=O)N1CCC[C@H]1C(=O)NCC(=O)N[C@@H](C)C(=O)N2 (cyclo(ACICRGNGYCGSGSDGGVCPVIL[X2]CRRDSDCPG); disulfide 2-19, 4-25, 10-31)
> 50000 |  |  | 500 | CC[C@H](C)[C@@H]1NC(=O)[C@@H]2CSSC[C@@H]3NC(=O)[C@H](C(C)C)NC(=O)CNC(=O)CNC(=O)[C@H](CC(=O)O)NC(=O)[C@H](CO)NC(=O)CNC(=O)[C@H](CO)NC(=O)CNC(=O)[C@@H]4CSSC[C@H](NC(=O)[C@H](CC(=O)O)NC(=O)[C@H](CO)NC(=O)[C@H](CC(=O)O)NC(=O)[C@H](CCCNC(=N)N)NC(=O)[C@H](CCCNC(=N)N)NC(=O)[C@H](CSSC[C@H](NC1=O)C(=O)N[C@@H](CCCNC(=N)N)C(=O)NCC(=O)N[C@@H](CC(N)=O)C(=O)NCC(=O)N[C@@H](Cc1ccc(O)cc1)C(=O)N4)NC(=O)[C@@H](CCCNC(=N)N)C(=O)[C@H](CCC(N)=O)NC(=O)[C@H](CC(C)C)NC(=O)[C@@H]1CCCN1C(=O)[C@@H](C(C)C)NC(=O)[C@H](C)NC3=O)C(=O)N1CCC[C@H]1C(=O)NCC(=O)N[C@@H](C)C(=O)N2
600 | Not Active | 0.075 |  | CC[C@H](C)[C@@H]1NC(=O)[C@@H]2CSSC[C@@H]3NC(=O)[C@H](C(C)C)NC(=O)CNC(=O)CNC(=O)[C@H](CC(=O)O)NC(=O)[C@H](CO)NC(=O)CNC(=O)[C@H](CO)NC(=O)CNC(=O)[C@@H]4CSSC[C@H](NC(=O)[C@H](CC(=O)O)NC(=O)[C@H](CO)NC(=O)[C@H](CC(=O)O)NC(=O)[C@H](CCCNC(=N)N)NC(=O)[C@H](CCCNC(=N)N)NC(=O)[C@H](CSSC[C@H](NC1=O)C(=O)N[C@@H](CCCNC(=N)N)C(=O)NCC(=O)N[C@@H](CC(N)=O)C(=O)NCC(=O)N[C@@H](Cc1ccc(O)cc1)C(=O)N4)NC(=O)[C@@H](CCCCN)C(=O)[C@H](CCCCN)NC(=O)[C@H](CC(C)C)NC(=O)[C@H]([C@@H](C)CC)NC(=O)[C@H](CCCCN)NC(=O)[C@@H]1CCCN1C3=O)C(=O)N1CCC[C@H]1C(=O)NCC(=O)N[C@@H](C)C(=O)N2 (cyclo(ACICRGNGYCGSGSDGGVCPKIL[X1]CRRDSDCPG); disulfide 2-19, 4-25, 10-31)
> 50000 | Not Active | > 0.106 |  | CC[C@H](C)[C@@H]1NC(=O)[C@@H]2CSSC[C@@H]3NC(=O)[C@H](C(C)C)NC(=O)CNC(=O)CNC(=O)[C@H](CC(=O)O)NC(=O)[C@H](CO)NC(=O)CNC(=O)[C@H](CO)NC(=O)CNC(=O)[C@@H]4CSSC[C@H](NC(=O)[C@H](CC(=O)O)NC(=O)[C@H](CO)NC(=O)[C@H](CC(=O)O)NC(=O)[C@H](CCCNC(=N)N)NC(=O)[C@H](CCCNC(=N)N)NC(=O)[C@H](CSSC[C@H](NC1=O)C(=O)N[C@@H](CCCNC(=N)N)C(=O)NCC(=O)N[C@@H](CC(N)=O)C(=O)NCC(=O)N[C@@H](Cc1ccc(O)cc1)C(=O)N4)NC(=O)[C@@H](CCCNC(=N)N)C(=O)[C@H](CCC(N)=O)NC(=O)[C@H](CC(C)C)NC(=O)[C@H]([C@@H](C)CC)NC(=O)[C@H](CCC(N)=O)NC(=O)[C@@H]1CCCN1C3=O)C(=O)N1CCC[C@H]1C(=O)NCC(=O)N[C@@H](C)C(=O)N2 (cyclo(ACICRGNGYCGSGSDGGVCPQIL[X2]CRRDSDCPG); disulfide 2-19, 4-25, 10-31)
